Assay results from patent US11214803B2, “Modulators of YAP1 expression” (Ionis Pharmaceuticals, Inc., priority 2019, dated 2022).
Strand notation (5' to 3'): a small letter for the sugar, then the base; units joined by * are phosphorothioate-linked, units joined directly phosphodiester-linked; [ ] holds rarer units or linkages, { } end groups; capitals alone tell only the bases. k = constrained ethyl (cEt); [5mC] = 5-methylcytosine; d = 2'-deoxy (DNA)

Test system: Yap1 mRNA
Assay: Antisense inhibition of human Yap1 in A-431 cells by cEt gapmers, single dose (Example 3, RTS36584)
Type: cell-based
Method: Modified oligonucleotides were designed to target a Yap1 nucleic acid and were tested for their effect on Yap1 mRNA level in vitro. The modified oligonucleotides were tested in a series of experiments that had similar culture conditions. Cultured A-431 cells at a density of 5,000 cells per well were treated using free uptake with 2,000 nM of modified oligonucleotide. After a treatment period of approximately 48 hours, RNA was isolated from the cells and Yap1 mRNA levels were measured by quantitative real-time RTPCR. Human primer probe set RTS36584 (forward sequence […], designated herein as SEQ ID NO.: 14; reverse sequence […], designated herein as SEQ ID NO.: 15; probe sequence […], designated herein as SEQ ID NO.: 16) was used to measure mRNA levels. Yap1 mRNA levels were normalized to total RNA content, as measured by RIBOGREEN®. Results are presented in the tables below as percent control of the amount of Yap1 mRNA relative to untreated control cells (% UTC). The modified oligonucleotides with percent control values marked with an asterisk (*) target the amplicon region of the primer probe set. Additional assays may be used to measure the potency and efficacy of the modified oligonucleotides targeting the amplicon region.
The newly designed modified oligonucleotides in the Tables below were designed as 3-10-3 cEt gapmers. The gapmers are 16 nucleosides in length, wherein the central gap segment comprises of ten 2′-deoxynucleosides and is flanked by wing segments on the 5′ direction and the 3′ direction comprising three nucleosides each. Each nucleoside in the 5′ wing segment and each nucleoside in the 3′ wing segment has a cEt sugar modification. The internucleoside linkages throughout each gapmer are phosphorothioate (P═S) linkages. All cytosine residues throughout each gapmer are 5-methylcytosines.
“Start site” indicates the 5′-most nucleoside to which the gapmer is targeted in the human gene sequence. “Stop site” indicates the 3′-most nucleoside to which the gapmer is targeted human gene sequence. […] Activity of the modified oligonucleotide may be defined in a different experiment.

[1] = Table 28, Yap1 mRNA as percent of untreated control, 3-10-3 cEt gapmers targeting SEQ ID NO.: 1, and 2
[2] = Table 8, A-431 cells, 5,000 cells per well, free uptake, 2,000 nM, approximately 48 hours, RTS36584, normalized to RIBOGREEN, Yap1 mRNA relative to untreated control cells
[3] = Table 11, A-431 cells, 5,000 cells per well, free uptake, 2,000 nM oligonucleotide, approx. 48 hours, primer probe set RTS36584, Yap1 mRNA normalized to RIBOGREEN, percent of untreated control
[4] = Table 34, Yap1 mRNA as percent of untreated control, 3-10-3 cEt gapmers targeting SEQ ID NO: 1 and 2, single dose
[5] = Table 29, Yap1 mRNA as percent of untreated control, 3-10-3 cEt gapmers targeting SEQ ID NO.: 1, and 2
[6] = Table 10, A-431 cells, 5,000 cells per well, free uptake, 2,000 nM oligonucleotide, approx. 48 hours, primer probe set RTS36584, Yap1 mRNA normalized to RIBOGREEN, percent of untreated control

1076558 (kG*k[5mC]*k[5mC]*dA*dA*dA*dT*dA*dT*dT*dT*dA*dA*k[5mC]*kT*k[5mC]; antisense) [compound 1076558]
YAP1 (% UTC) [1]: 30 % UTC

958604 (kA*k[5mC]*kG*d[5mC]*dT*dA*dG*dA*dA*dA*dA*dG*dT*kG*kT*kT; antisense) [Compound 958604]
YAP1 (% UTC) (Table 12, A-431 cells, 5,000 cells per well, free uptake, 2,000 nM modified oligonucleotide, approx. 48 hours, RTS36584, normalized to RIBOGREEN, Yap1 mRNA relative to untreated control cells): 94 % UTC

958352 (k[5mC]*kG*kG*dT*d[5mC]*dT*d[5mC]*d[5mC]*dG*dA*dG*dT*d[5mC]*k[5mC]*k[5mC]*k[5mC]; antisense) [Compound 958352]
YAP1 (% UTC) [2]: 110 % UTC

958350 (kT*k[5mC]*k[5mC]*dG*dA*dG*dT*d[5mC]*d[5mC]*d[5mC]*d[5mC]*dG*d[5mC]*kG*kG*kA; antisense) [Compound 958350]
YAP1 (% UTC) [2]: 106 % UTC

958395 (antisense k[5mC]*kT*kA*dA*d[5mC]*dA*dA*d[5mC]*d[5mC]*dT*dG*dG*dT*kT*kT*kG) [Compound 958395]
YAP1 (% UTC) [2]: 114 % UTC

958750 (antisense kT*kG*kT*dA*dA*dG*dA*dG*dG*dA*dG*dA*d[5mC]*k[5mC]*kA*k[5mC]) [Compound 958750]
YAP1 (% UTC) (Table 13, A-431 cells, 5,000 cells per well, free uptake, 2,000 nM modified oligonucleotide, approx. 48 hours, RTS36584, normalized to RIBOGREEN, Yap1 mRNA relative to untreated control cells): 28 % UTC

958678 (kG*kG*kA*dG*dG*dA*dG*dT*d[5mC]*dA*d[5mC]*d[5mC]*dA*kT*kG*kG; antisense) [Compound 958678]
YAP1 (% UTC) [3]: 74 % UTC

958783 (antisense kT*kG*kA*dT*d[5mC]*dT*dG*dA*dT*dG*d[5mC]*dT*dT*kG*k[5mC]*kT) [Compound 958783]
YAP1 (% UTC) [3]: 35 % UTC

1076398 (antisense k[5mC]*kT*kT*dG*dA*dA*dG*dG*dG*d[5mC]*dT*dA*dT*kG*kG*kA) [compound 1076398]
YAP1 (% UTC) [1]: 62 % UTC

1076533 (kA*kT*kT*dT*dT*dT*dA*dG*dT*d[5mC]*d[5mC]*dA*dG*kT*kG*kG; antisense) [compound 1076533]
YAP1 (% UTC) (Table 35, Yap1 mRNA as percent of untreated control, 3-10-3 cEt gapmers targeting SEQ ID NO: 1 and 2, single dose): 9 % UTC

1075060 (antisense kG*kT*kT*dT*dA*dA*d[5mC]*dA*dA*dT*d[5mC]*dT*d[5mC]*k[5mC]*k[5mC]*k[5mC]) [compound 1075060]
YAP1 (% UTC) [4]: 70 % UTC

958378 (antisense k[5mC]*kA*kT*d[5mC]*dA*dG*dT*dA*d[5mC]*dT*dG*dG*d[5mC]*k[5mC]*kT*kA) [Compound 958378]
YAP1 (% UTC) [2]: 25 % UTC

958706 (antisense kT*k[5mC]*kG*d[5mC]*dA*dT*dG*dG*d[5mC]*d[5mC]*dA*d[5mC]*dT*kG*k[5mC]*k[5mC]) [Compound 958706]
YAP1 (% UTC) (Table 9, A-431 cells, 5,000 cells per well, free uptake, 2,000 nM, approximately 48 hours, RTS36584, normalized to RIBOGREEN, Yap1 mRNA relative to untreated control cells): 112 % UTC

1074956 (antisense kA*k[5mC]*k[5mC]*d[5mC]*dG*dG*dG*dT*dT*dT*dT*dT*dG*kT*k[5mC]*kA) [compound 1074956]
YAP1 (% UTC) (Table 26, Yap1 mRNA by 3-10-3 cEt gapmers targeting SEQ ID NO.: 1, and 2, percent of untreated control): 104 % UTC

1076495 (kG*kA*kT*dT*dA*dG*dT*dG*dA*dA*dA*dA*dT*kT*k[5mC]*k[5mC]; antisense) [compound 1076495]
YAP1 (% UTC) [5]: 30 % UTC

1076493 (kT*kG*kA*d[5mC]*dA*dA*dT*dA*dA*dG*dG*dG*dA*k[5mC]*kA*kA; antisense) [compound 1076493]
YAP1 (% UTC) (Table 27, Yap1 mRNA by 3-10-3 cEt gapmers targeting SEQ ID NO.: 1, and 2, percent of untreated control): 34 % UTC

1074574 (DNA k[5mC]*kA*kT*dT*dA*dT*dG*dA*dA*d[5mC]*d[5mC]*dT*dA*k[5mC]*kT*k[5mC]) [compound 1074574]
YAP1 (% UTC) [1]: 17 % UTC

1076303 (k[5mC]*kT*kA*dA*dT*dA*dA*dG*d[5mC]*d[5mC]*dT*d[5mC]*dA*k[5mC]*k[5mC]*kT; antisense) [compound 1076303]
YAP1 (% UTC) [5]: 34 % UTC

958777 (antisense kG*kT*kA*dA*d[5mC]*dT*dG*dT*dT*dT*d[5mC]*dT*dA*kG*kG*kT) [Compound 958777]
YAP1 (% UTC) [6]: 10 % UTC

958582 (kA*kA*kT*d[5mC]*dT*dG*d[5mC]*dT*dG*dA*dT*dA*dT*kA*kT*kA; antisense) [Compound 958582]
YAP1 (% UTC) [6]: 21 % UTC

1074255 (antisense kT*k[5mC]*kA*dT*d[5mC]*dT*dG*dG*dG*dA*d[5mC]*dA*dG*k[5mC]*kA*kT) [compound 1074255]
YAP1 (% UTC) [5]: 16 % UTC

1075764 (k[5mC]*kT*kT*d[5mC]*dA*dA*dG*dG*dA*dA*dG*dG*dT*kG*k[5mC]*kT; antisense) [compound 1075764]
YAP1 (% UTC) [4]: 103 % UTC
